Results as given in the supplement of paper PMC11208160.

experiment: recombinant UMI read abundance after kanamycin selection (control-corrected) (log10(CPM+1)); higher = more efficient recombination; extreme values may be limits of the assay; sequences stand for … in AGTGCAGAGAAAATCGGCCAGTTTTCTCTGCCTGCAGTCCGCATGCCGTGGGACCCCTTGGGTTCTAACCTGTTGCCTAGATTTATGCAGCGGACTGCCTTTCTCCCAAAGTGATAAACCGG…AGGTTGGTTTCACT; site = the 11-nt donor
How it was run: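 Values, expressed as log10(CPM+1), derive from recombinant UMI counts converted to CPM, averaged across replicates and scaled by control-derived factors. Plating was with IPTG (0.07 mM) plus kanamycin or unselected, two replicates each. The screen pooled donor and donor-binding-loop pairs for the IS621 bridge recombinase in Escherichia coli.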
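Further: IS621 bridge recombinase in Escherichia coli cells against a fixed T5 target plasmid.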

“TAGCCTTCATGGACCGGTTTTCCCGGTAATCCGTATTTGGT (site TAGCCTACTAC)” and “GTAGGTCCATGGACCGGTTTTCCCGGTAATCCGTATTTGAC (site GTAGGTCCTGT)” are within 0.2 log units of each other in “recombinant UMI read abundance (log10)” value: 0.0102 for the first, 0 for the second.

Compared with “TAGCCTTCATGGACCGGTTTTCCCGGTAATCCGTATTTGGT (site TTGCCTTCTAC)”, “TAAAGTCCATGGACCGGTTTTCCCGGTAATCCGTATTTGGA (site TAAAGTCCTTC)” is higher in “recombinant UMI read abundance (log10)” value: 0.0116 for the first, 0.231 for the second.

“CCCATCTCATGGACCGGTTTTCCCGGTAATCCGTATTTGTC (site CCCATGTCTGA)” and “TTTCGATCATGGACCGGTTTTCCCGGTAATCCGTATTTGGT (site TTTCGATCTAC)” are within 0.2 log units of each other in “recombinant UMI read abundance (log10)” value: 0 for the first, 0.00229 for the second.

Going from “CCAAAGGCATGGACCGGTTTTCCCGGTAATCCGTATTTGGC (site CCAAAGGCTGC)” to “GTCCCCACATGGACCGGTTTTCCCGGTAATCCGTATTTGTA (site GTCCCCACTTA)”, the “recombinant UMI read abundance (log10)” value rises from 0 to 1.14.

“TCAGAGACATGGACCGGTTTTCCCGGTAATCCGTATTTGGG (site TCAGAGACTCT)” and “TCATACTCATGGACCGGTTTTCCCGGTAATCCGTATTTGCA (site TCAGACTCTTG)” are within 0.2 log units of each other in “recombinant UMI read abundance (log10)” value: 0.0246 for the first, 0 for the second.

“TTGTAGGCATGGACCGGTTTTCCCGGTAATCCGTATTTGGC (site ATGTAGGCTGC)” and “GAACATTCATGGACCGGTTTTCCCGGTAATCCGTATTTGTT (site GAATATTCTAA)” are within 0.2 log units of each other in “recombinant UMI read abundance (log10)” value: 0 for the first, 0.0114 for the second.

First: GTGGAAGCATGGACCGGTTTTCCCGGTAATCCGTATTTGTG (site GTGGACGCTCA)
Second: TAAAGTCCATGGACCGGTTTTCCCGGTAATCCGTATTTGTC (site TAAAGTCCTCA)
The “recombinant UMI read abundance (log10)” value of the first is higher: 0.582 for the first, 0.00821 for the second.

“CCAGGTACATGGACCGGTTTTCCCGGTAATCCGTATTTGAT (site CCAGGTCCTAT)” and “TCCAATTCATGGACCGGTTTTCCCGGTAATCCGTATTTGCC (site TCCCATTCTGG)” are the same in “recombinant UMI read abundance (log10)” value: 0 for the first, 0 for the second.

Compared with “TCAAGTCCATGGACCGGTTTTCCCGGTAATCCGTATTTGTA (site TTAAGTCCTTA)”, “CTAAGGGCATGGACCGGTTTTCCCGGTAATCCGTATTTGAT (site CTAAGGGCTAT)” is higher in “recombinant UMI read abundance (log10)” value: 0.0663 for the first, 2.15 for the second.

First: TAAAGAGCATGGACCGGTTTTCCCGGTAATCCGTATTTGGG (site TAAGGAGCTCC)
Second: CCACGCGCATGGACCGGTTTTCCCGGTAATCCGTATTTGAG (site CCACGCGCTCT)
The “recombinant UMI read abundance (log10)” value of the first is lower: 0.0278 for the first, 0.759 for the second.

Going from “TCAGAGACATGGACCGGTTTTCCCGGTAATCCGTATTTGCA (site TCAGAGACTTG)” to “CTCCAGTCATGGACCGGTTTTCCCGGTAATCCGTATTTGAG (site CTCCAGTCTCT)”, the “recombinant UMI read abundance (log10)” value falls from 2.49 to 0.842.

“CCTATTTCATGGACCGGTTTTCCCGGTAATCCGTATTTGGC (site CCTATTTCTGC)” and “TGTTCCCCATGGACCGGTTTTCCCGGTAATCCGTATTTGTA (site TGTACCCCTTA)” are within 0.2 log units of each other in “recombinant UMI read abundance (log10)” value: 0 for the first, 0.0227 for the second.

Going from “ACTCGCTCATGGACCGGTTTTCCCGGTAATCCGTATTTGGT (site ACTCGCTCTAC)” to “GTGTTATCATGGACCGGTTTTCCCGGTAATCCGTATTTGCT (site GTGTTATCTAG)”, the “recombinant UMI read abundance (log10)” value rises from 2.03 to 2.87.

First: TTTGCGGCATGGACCGGTTTTCCCGGTAATCCGTATTTGGT (site TTTGCGGCTAC)
Second: GGACCAACATGGACCGGTTTTCCCGGTAATCCGTATTTGTA (site GGACCAACTTA)
The “recombinant UMI read abundance (log10)” value of the first is lower: 0.0146 for the first, 1.09 for the second.

Compared with “TAACTAGCATGGACCGGTTTTCCCGGTAATCCGTATTTGAA (site TAGCTAGCTTT)”, “CATTTCCCATGGACCGGTTTTCCCGGTAATCCGTATTTGCT (site CACTTCCCTAG)” is higher in “recombinant UMI read abundance (log10)” value: 0.00713 for the first, 0.691 for the second.

Going from “CCAGGAGCATGGACCGGTTTTCCCGGTAATCCGTATTTGAT (site CCAGGTGCTAT)” to “GTGCATGCATGGACCGGTTTTCCCGGTAATCCGTATTTGGT (site GTGCAGGCTAC)”, the “recombinant UMI read abundance (log10)” value falls from 1.78 to 0.384.

First: TGTGAATCATGGACCGGTTTTCCCGGTAATCCGTATTTGTC (site TGTGAATCTGA)
Second: GTATGCACATGGACCGGTTTTCCCGGTAATCCGTATTTGTA (site GTATGCGCTTA)
The “recombinant UMI read abundance (log10)” value of the first is higher: 0.782 for the first, 0.376 for the second.

“TCCAAAGCATGGACCGGTTTTCCCGGTAATCCGTATTTGAC (site GTACCGCCTAG)” and “TAGCGTTCATGGACCGGTTTTCCCGGTAATCCGTATTTGGT (site TAGCTTTCTAC)” are the same in “recombinant UMI read abundance (log10)” value: 0 for the first, 0 for the second.

Compared with “TAGCCTTCATGGACCGGTTTTCCCGGTAATCCGTATTTGGT (site TAGCCTTCTAT)”, “CTGGCAACATGGACCGGTTTTCCCGGTAATCCGTATTTGCA (site CTGGCAACTTG)” is higher in “recombinant UMI read abundance (log10)” value: 0.017 for the first, 1.01 for the second.

Compared with “TAGGTGTCATGGACCGGTTTTCCCGGTAATCCGTATTTGCA (site TAGGTGTCTTG)”, “CTGCTACCATGGACCGGTTTTCCCGGTAATCCGTATTTGCT (site CTGCTATCTAG)” is lower in “recombinant UMI read abundance (log10)” value: 3.29 for the first, 1.67 for the second.

“CTGCTACCATGGACCGGTTTTCCCGGTAATCCGTATTTGCT (site CTGCTACCTCG)” and “CTTCGAGCATGGACCGGTTTTCCCGGTAATCCGTATTTGCA (site ATTCGAGCTTG)” are within 0.2 log units of each other in “recombinant UMI read abundance (log10)” value: 0.0163 for the first, 0.00677 for the second.

First: TGCGGCCCATGGACCGGTTTTCCCGGTAATCCGTATTTGCG (site TGCGGCCCTCG)
Second: TCATATACATGGACCGGTTTTCCCGGTAATCCGTATTTGGA (site TCATATACTTC)
The “recombinant UMI read abundance (log10)” value of the first is lower: 0.0374 for the first, 0.727 for the second.

First: ATGTAGGCATGGACCGGTTTTCCCGGTAATCCGTATTTGGC (site ATGTAGGCTCC)
Second: CGAATACCATGGACCGGTTTTCCCGGTAATCCGTATTTGTA (site CGAATACCTTA)
The “recombinant UMI read abundance (log10)” value of the first is higher: 0.328 for the first, 0 for the second.

First: TGAATTTCATGGACCGGTTTTCCCGGTAATCCGTATTTGAG (site TGAATTTCTCT)
Second: AAAGTATCATGGACCGGTTTTCCCGGTAATCCGTATTTGGA (site ACAGTATCTTG)
The “recombinant UMI read abundance (log10)” value of the first is higher: 0.492 for the first, 0 for the second.

“CAGCTACCATGGACCGGTTTTCCCGGTAATCCGTATTTGCT (site CAGCTACCTAG)” and “CCTAATCCATGGACCGGTTTTCCCGGTAATCCGTATTTGGC (site CCTAATTCTGC)” are the same in “recombinant UMI read abundance (log10)” value: 0 for the first, 0 for the second.

Compared with “TGTTGTTCATGGACCGGTTTTCCCGGTAATCCGTATTTGAA (site TGTTGTTCTTT)”, “AAGAAAACATGGACCGGTTTTCCCGGTAATCCGTATTTGGT (site AAGAAAACTAC)” is higher in “recombinant UMI read abundance (log10)” value: 0.472 for the first, 1.5 for the second.

Going from “GTCCGACCATGGACCGGTTTTCCCGGTAATCCGTATTTGCA (site GTCCGACCTTG)” to “GACAAATCATGGACCGGTTTTCCCGGTAATCCGTATTTGGT (site GACAAAGCTAC)”, the “recombinant UMI read abundance (log10)” value rises from 0 to 0.224.

Compared with “CTGTAAACATGGACCGGTTTTCCCGGTAATCCGTATTTGCA (site CTGTAAACTTG)”, “AGAGAGGCATGGACCGGTTTTCCCGGTAATCCGTATTTGCT (site AGACAGGCTAG)” is lower in “recombinant UMI read abundance (log10)” value: 1.29 for the first, 0.828 for the second.

Going from “GCTGTGTCATGGACCGGTTTTCCCGGTAATCCGTATTTGGA (site GCTGTGTCTTC)” to “CAATTCACATGGACCGGTTTTCCCGGTAATCCGTATTTGGG (site CAAGTCACTCC)”, the “recombinant UMI read abundance (log10)” value falls from 1.46 to 0.0135.

Going from “TAACAGACATGGACCGGTTTTCCCGGTAATCCGTATTTGGT (site TAACAGACTAC)” to “CTCCCAACATGGACCGGTTTTCCCGGTAATCCGTATTTGAG (site CTCCCGACTCT)”, the “recombinant UMI read abundance (log10)” value falls from 0.99 to 0.0167.

First: CCAGGAGCATGGACCGGTTTTCCCGGTAATCCGTATTTGAT (site CCAGGGGCTAT)
Second: CTATTATCATGGACCGGTTTTCCCGGTAATCCGTATTTGGC (site CTAGTATCTGT)
The “recombinant UMI read abundance (log10)” value of the first is higher: 0.941 for the first, 0 for the second.

Compared with “TACTTGACATGGACCGGTTTTCCCGGTAATCCGTATTTGCC (site TACTTGACTCG)”, “TAGGAATCATGGACCGGTTTTCCCGGTAATCCGTATTTGCG (site TAGGTATCTCG)” is higher in “recombinant UMI read abundance (log10)” value: 0.0284 for the first, 1.63 for the second.

Compared with “TAGACTCCATGGACCGGTTTTCCCGGTAATCCGTATTTGCA (site TAGACTCCTTG)”, “CGCGAACCATGGACCGGTTTTCCCGGTAATCCGTATTTGAT (site CGTGAACCTAT)” is lower in “recombinant UMI read abundance (log10)” value: 1.54 for the first, 0 for the second.

“CAAGCATCATGGACCGGTTTTCCCGGTAATCCGTATTTGCT (site CAAGCAGCTAG)” and “TTAGCTGCATGGACCGGTTTTCCCGGTAATCCGTATTTGAG (site TTAGCTGCTCA)” are within 0.2 log units of each other in “recombinant UMI read abundance (log10)” value: 0 for the first, 0.025 for the second.

Going from “GGATAGACATGGACCGGTTTTCCCGGTAATCCGTATTTGCC (site GGATAGGCTGG)” to “AGGACGACATGGACCGGTTTTCCCGGTAATCCGTATTTGCT (site AGGACGACTAG)”, the “recombinant UMI read abundance (log10)” value rises from 1.98 to 2.52.

Going from “TCATCGGCATGGACCGGTTTTCCCGGTAATCCGTATTTGAG (site TCATCGGCTCT)” to “GGCTCTACATGGACCGGTTTTCCCGGTAATCCGTATTTGGC (site GGCTCTACTGC)”, the “recombinant UMI read abundance (log10)” value falls from 0.699 to 0.

“TAGCCTTCATGGACCGGTTTTCCCGGTAATCCGTATTTGGT (site TAGCGTTCTAC)” and “GTTGGTCCATGGACCGGTTTTCCCGGTAATCCGTATTTGGT (site GTTGCTCCTAC)” are within 0.2 log units of each other in “recombinant UMI read abundance (log10)” value: 0 for the first, 0.00872 for the second.

For “GTGACCCCATGGACCGGTTTTCCCGGTAATCCGTATTTGCC (site GTGACCCCTGG)”, the “recombinant UMI read abundance (log10)” value was 1.83.
